The values that follow come from patent US20080009548A1, “AMBROXOL FOR THE TREATMENT OF ACUTE PAIN” (priority 2003, published 2008).

The test system of experiment [1] is voltage-dependent calcium channels. Briefly: Patch-Clamp measurement of current through voltage-dependent calcium channels in posterior root ganglia neurons. The format is cell-based. Particulars: neuron cultures from adult rat posterior root ganglia; voltage jumps from −80 mV to 0 mV for 50 ms. The text has this:
Voltage-dependent calcium channels play an important role in the transmission of pain-related excitation in the nervous system. The blocking of these channels has been described as being helpful for the treatment of acute pain (KA Sluka (1998), JPET 287, 232-237; J Devulder et al. (2001), J Pain Sympt Management 22, 622-626). […] Neurons were dissected from posterior root ganglia of adult rats and placed in short-term culture. The cells were investigated electrophysiologically by the Patch-Clamp method (voltage terminal), and the flow of current through voltage-dependent calcium channels was measured after electrical stimulation (voltage jumps from −80 mV to 0 mV holding potential for 50 ms) in the presence and absence of ambroxol.
On the technique in general: The patch-clamp technique gives a direct electrical read-out from membranes.

For experiment [2], the system named is Tetrodotoxin-sensitive currents. The format is cell-based, rat. Particulars: read-out: IC50 of tetrodotoxin-sensitive currents; neuron cultures from the posterior root ganglia of adult rats.
For experiment [3], the target named is tetrodotoxin-resistant sodium channels (Rattus norvegicus, UniProt Q62968). In kind it is cell-based. Particulars: neuron cultures from the posterior root ganglia of adult rats; read-out: half-maximal inhibition of tetrodotoxin-resistant sodium channels.
Experiment [4] concerns the target T1, human GluR1/2 receptors (Homo sapiens, UniProt P42261+P42262).
T1 construct: expressed in transfected cells; host or cells: HEK 293
Briefly: Patch-Clamp measurement of glutamate-induced membrane currents in HEK 293 cells expressing GluR1/2 receptors. Particulars: HEK 293 cells expressing human GluR1/2; 1 mM glutamate for 1 s, holding potential −80 mV. In kind it is cell-based. On the procedure: Ionotropic glutamate receptors of the AMPA sub-type are also essential for the excitatory neurotransmission. […] The blocking of AMPA receptors has been described as being helpful for the treatment of acute pain (e.g., ji Szekely et al. (1997), EJP 336, 143-154). HEK 293 cells which expressed functionally recombinant human GluR1/2 receptors were electrophysiologically investigated by the Patch-Clamp method ([…]). The administration of 1 mM glutamate (for 1 s at a holding potential of −80 mV) induced membrane currents which were inhibited by the joint administration of ambroxol.

Bounds are passed on as bounds.

T1 sequence (P42261 19-906): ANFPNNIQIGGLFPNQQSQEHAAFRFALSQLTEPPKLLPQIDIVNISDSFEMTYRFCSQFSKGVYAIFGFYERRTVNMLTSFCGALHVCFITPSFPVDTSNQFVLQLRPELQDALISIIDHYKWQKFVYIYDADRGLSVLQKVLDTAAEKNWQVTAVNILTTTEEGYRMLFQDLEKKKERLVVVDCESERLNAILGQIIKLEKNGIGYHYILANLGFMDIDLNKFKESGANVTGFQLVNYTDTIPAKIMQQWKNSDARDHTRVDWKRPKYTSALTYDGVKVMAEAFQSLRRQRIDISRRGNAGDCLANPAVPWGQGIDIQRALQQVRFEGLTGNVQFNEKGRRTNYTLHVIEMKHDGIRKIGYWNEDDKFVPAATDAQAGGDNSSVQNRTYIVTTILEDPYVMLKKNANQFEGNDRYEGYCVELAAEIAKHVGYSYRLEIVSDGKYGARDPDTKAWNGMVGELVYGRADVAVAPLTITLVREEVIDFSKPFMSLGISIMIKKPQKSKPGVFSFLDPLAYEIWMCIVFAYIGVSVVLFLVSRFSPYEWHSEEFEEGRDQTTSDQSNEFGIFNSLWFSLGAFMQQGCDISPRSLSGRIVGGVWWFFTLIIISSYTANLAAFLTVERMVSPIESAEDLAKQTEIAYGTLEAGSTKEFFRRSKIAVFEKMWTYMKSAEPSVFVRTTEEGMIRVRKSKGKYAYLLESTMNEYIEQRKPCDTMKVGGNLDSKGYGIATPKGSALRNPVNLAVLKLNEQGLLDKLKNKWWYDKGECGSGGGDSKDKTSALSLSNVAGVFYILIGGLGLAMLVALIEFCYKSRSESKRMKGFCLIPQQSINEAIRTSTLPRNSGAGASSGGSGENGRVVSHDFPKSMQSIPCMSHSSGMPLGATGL
T1 sequence (P42262 22-883 limits assumed): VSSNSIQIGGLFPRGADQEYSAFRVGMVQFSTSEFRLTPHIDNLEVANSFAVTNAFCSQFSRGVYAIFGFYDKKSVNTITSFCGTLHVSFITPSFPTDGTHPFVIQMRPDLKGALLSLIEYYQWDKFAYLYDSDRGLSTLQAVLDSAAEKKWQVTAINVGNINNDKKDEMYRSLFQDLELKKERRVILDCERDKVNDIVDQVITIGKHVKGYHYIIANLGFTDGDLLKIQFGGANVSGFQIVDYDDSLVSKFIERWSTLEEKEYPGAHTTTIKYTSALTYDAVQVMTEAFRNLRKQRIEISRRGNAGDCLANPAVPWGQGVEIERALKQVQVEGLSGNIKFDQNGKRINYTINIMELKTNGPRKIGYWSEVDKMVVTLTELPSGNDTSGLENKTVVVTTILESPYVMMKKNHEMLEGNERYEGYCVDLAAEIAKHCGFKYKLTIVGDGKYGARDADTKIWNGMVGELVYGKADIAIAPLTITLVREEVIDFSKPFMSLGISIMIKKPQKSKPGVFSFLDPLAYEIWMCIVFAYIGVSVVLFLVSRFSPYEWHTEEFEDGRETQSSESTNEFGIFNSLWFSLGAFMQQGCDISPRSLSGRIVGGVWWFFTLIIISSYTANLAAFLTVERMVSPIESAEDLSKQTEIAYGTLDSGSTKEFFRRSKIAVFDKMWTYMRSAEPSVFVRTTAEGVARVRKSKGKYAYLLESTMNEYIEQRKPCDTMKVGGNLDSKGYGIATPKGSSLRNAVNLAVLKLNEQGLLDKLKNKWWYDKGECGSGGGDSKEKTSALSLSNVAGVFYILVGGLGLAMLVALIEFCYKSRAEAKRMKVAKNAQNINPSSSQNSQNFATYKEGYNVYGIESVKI

For `Nc1c(Br)cc(Br)cc1CN[C@H]1CC[C@H](O)CC1` [ambroxol, trans-4-(2-amino-3,5-dibromobenzylamino)cyclohexanol], the “concentrations that block voltage-dependent calcium channels” value in experiment [1] is 10 to 1000 µM. The IC50 in experiment [2] is > 100 µM; in experiment [3] it was 35 µM. The “concentrations that inhibit glutamate-induced membrane currents” value in experiment [4] fell in the range of 30 to 1000 µM.
